Like-named read-outs stand apart in the source and are kept apart here.
Key:
[1] = test system: JeKo-1 cells; test: Antiproliferative effect, MTS cell viability assay, JeKo-1 cells; assay type: cell-based; settings: Homo sapiens; JeKo-1 mantle cell lymphoma cells; read-out: IC50 (anti-proliferation) JeKO-1 cells
Outline: (§1)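 Cells were exposed to compound at 0, 0.001, 0.01, 0.1, 1 and 10 μM for 72 h. Viability was then measured by MTS assay, reading formazan produced by metabolically active cells as absorbance at 490 nm.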

[2] = biological target: BTK (Homo sapiens, UniProt Q06187); test: Degradation of BTK protein in Namalwa cells (Western blot; DC50, Dmax); settings: for DC50: cell line not given
[3] = test system: Mino cells; test: Antiproliferative effect, MTS cell viability assay, Mino cells; assay type: cell-based; settings: Homo sapiens, Mino mantle cell lymphoma cells, read-out: IC50 (anti-proliferation) Mino cells
Outline: as §1

[4] = read-out: DC50 (BTK degradation), concentration giving 50% reduction of BTK expression level
[5] = read-out: Dmax (BTK degradation)

Chain of BTK (Q06187 whole entry): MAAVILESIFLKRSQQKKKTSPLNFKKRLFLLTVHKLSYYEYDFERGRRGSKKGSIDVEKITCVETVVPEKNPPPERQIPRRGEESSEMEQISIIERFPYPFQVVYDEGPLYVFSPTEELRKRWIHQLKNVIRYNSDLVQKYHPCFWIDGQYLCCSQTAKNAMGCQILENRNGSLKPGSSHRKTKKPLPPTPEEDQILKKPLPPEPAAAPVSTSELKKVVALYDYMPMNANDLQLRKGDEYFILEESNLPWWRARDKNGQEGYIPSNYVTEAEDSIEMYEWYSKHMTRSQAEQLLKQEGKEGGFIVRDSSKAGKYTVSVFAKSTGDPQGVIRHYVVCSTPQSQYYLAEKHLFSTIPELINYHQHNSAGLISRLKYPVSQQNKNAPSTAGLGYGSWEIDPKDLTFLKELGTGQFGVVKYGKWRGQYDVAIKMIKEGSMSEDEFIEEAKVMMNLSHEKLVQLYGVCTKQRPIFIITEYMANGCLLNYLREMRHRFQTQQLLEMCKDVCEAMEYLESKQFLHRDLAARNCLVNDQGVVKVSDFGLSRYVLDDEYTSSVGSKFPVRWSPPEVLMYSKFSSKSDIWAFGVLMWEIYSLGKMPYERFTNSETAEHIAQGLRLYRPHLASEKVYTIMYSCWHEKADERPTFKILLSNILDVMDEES

Nc1ncnc2c1c(-c1ccc(Oc3ccccc3)cc1)nn2C1CCN(C2CCN(CCCN3CCN(c4ccc5c(c4)C(=O)N(C4CCC(=O)NC4=O)C5=O)CC3)CC2)CC1 (stereo not drawn) [Compound 221, 5-(4-(3-(4-(4-amino-3-(4-phenoxyphenyl)-1H-pyrazolo[3,4-d]pyrimidin-1-yl)-[1,4′-bipiperidin]-1′-yl)propyl)piperazin-1-yl)-2-(2,6-dioxopiperidin-3-yl)isoindoline-1,3-dione] showed an IC50 [1] of 1000 to 10000 nM, a Dmax [2] greater than 75% and a DC50 ([2]; BTK degradation) of 10 to 50 nM. The IC50 ([3]; MINO) was greater than 10000 nM.
Nc1ncnc2c1c(-c1ccc(Oc3ccccc3)cc1)nn2C1CCN(CC2CCN(CC3CCN(c4ccc(N5CCC(=O)NC5=O)cc4)CC3)CC2)CC1 [Compound 552] showed an IC50 [1] of less than 1000 nM, a DC50 [2, 4] of less than 10 nM and a Dmax [2, 5] greater than 90%. The IC50 [3] was less than 1000 nM.
Work on Nc1ncnc2c1c(-c1ccc(Oc3ccccc3)cc1)nn2C1CCN(C2CCN(C(=O)N3CCN(CCCC4CCN(c5ccc6c(c5)CN(C5CCC(=O)NC5=O)C6=O)CC4)CC3)CC2)CC1 (stereo not drawn) [Compound 260, 3-(5-(4-(3-(4-(4-(4-amino-3-(4-phenoxyphenyl)-1H-pyrazolo[3,4-d]pyrimidin-1-yl)-[1,4′-bipiperidine]-1′-carbonyl)piperazin-1-yl)propyl)piperidin-1-yl)-1-oxoisoindolin-2-yl)piperidine-2,6-dione] yielded an IC50 [1] of 1000 to 10000 nM, a Dmax [2] greater than 75% and a DC50 ([2]; BTK degradation) of 10 to 50 nM. For the same molecule, the IC50 ([3]; MINO) was 1000 to 10000 nM.
Work on Nc1ncnc2c1c(-c1ccc(Oc3ccccc3)cc1)nn2C1CCN(CCCN2CCC(CN3CCC(c4ccc5c(c4)oc(=O)n5C4CCC(=O)NC4=O)CC3)CC2)CC1 (stereo not drawn) [Compound 546, 3-(6-(1-((1-(3-(4-(4-amino-3-(4-phenoxyphenyl)-1H-pyrazolo[3,4-d]pyrimidin-1-yl)piperidin-1-yl)propyl)piperidin-4-yl)methyl)piperidin-4-yl)-2-oxobenzo[d]oxazol-3(2H)-yl)piperidine-2,6-dione] yielded an IC50 [1] of less than 1000 nM, a DC50 [2, 4] of less than 10 nM and a Dmax [2, 5] greater than 90%. The IC50 ([3]; MINO) was 1000 to 10000 nM.
For NC(=O)c1c(-c2ccc(Oc3ccccc3)cc2)nn2c1NCC[C@H]2C1CCN(C(=O)N2CCN(CCN3CCC(c4ccc5c(c4)CN(C4CCC(=O)NC4=O)C5=O)CC3)CC2)CC1 (stereo partly drawn) [Compound 304, (7S)-7-(1-(4-(2-(4-(2-(2,6-dioxopiperidin-3-yl)-1-oxoisoindolin-5-yl)piperidin-1-yl)ethyl)piperazine-1-carbonyl)piperidin-4-yl)-2-(4-phenoxyphenyl)-4,5,6,7-tetrahydropyrazolo[1,5-a]pyrimidine-3-carboxamide], the IC50 [1] was 1000 to 10000 nM, the Dmax [2] was greater than 75% and the DC50 ([2]; BTK degradation) was 10 to 50 nM. It also gave an IC50 ([3]; MINO) of 1000 to 10000 nM.
With Nc1ncnc2c1c(-c1ccc(Oc3ccccc3)cc1)nn2[C@@H]1CCCN(C2CN(C(=O)N3CC(N4CCN(c5ccc6c(c5)CN(C5CCC(=O)NC5=O)C6=O)CC4)C3)C2)C1 (stereo partly drawn) [Compound 480, 3-(5-(4-(1-(3-((R)-3-(4-amino-3-(4-phenoxyphenyl)-1H-pyrazolo[3,4-d]pyrimidin-1-yl)piperidin-1-yl)azetidine-1-carbonyl)azetidin-3-yl)piperazin-1-yl)-1-oxoisoindolin-2-yl)piperidine-2,6-dione] the IC50 [1] was 1000 to 10000 nM, the “degradation of BTK protein” value ([2]; Namalwa B lymphocyte cells, various concentrations, 24 hours, Western blot) was “dose-dependent degradation” and the DC50 [2, 4] was less than 10 nM. It also gave a Dmax [2, 5] greater than 90% and an IC50 ([3]; MINO) of less than 1000 nM.
In the case of Nc1ncnc2c1c(-c1ccc(Oc3ccccc3)cc1)nn2C1CCN(C2CCN(C(=O)N3CCC(CCCN4CCN(c5ccc6c(c5)C(=O)N(C5CCC(=O)NC5=O)C6=O)CC4)CC3)CC2)CC1 (stereo not drawn) [Compound 263, 5-(4-(3-(1-(4-(4-amino-3-(4-phenoxyphenyl)-1H-pyrazolo[3,4-d]pyrimidin-1-yl)-[1,4′-bipiperidine]-1′-carbonyl)piperidin-4-yl)propyl)piperazin-1-yl)-2-(2,6-dioxopiperidin-3-yl)isoindoline-1,3-dione], the IC50 [1] is reported as greater than 10000 nM, the Dmax [2] is reported as greater than 90% and the DC50 ([2]; BTK degradation) is reported as 10 to 50 nM. The IC50 ([3]; MINO) was 1000 to 10000 nM.
For NC(=O)c1c(-c2ccc(Oc3ccccc3)cc2)nn2c1NCCC2C1CCN(C2CCN(C(=O)N3CCC(CC4CCN(c5ccc6c(c5)C(=O)N(C5CCC(=O)NC5=O)C6=O)CC4)CC3)CC2)CC1 (stereo not drawn) [Compound 353, 7-(1′-(4-((1-(2-(2,6-dioxopiperidin-3-yl)-1,3-dioxoisoindolin-5-yl)piperidin-4-yl)methyl)piperidine-1-carbonyl)-[1,4′-bipiperidin]-4-yl)-2-(4-phenoxyphenyl)-4,5,6,7-tetrahydropyrazolo[1,5-a]pyrimidine-3-carboxamide], the IC50 [1] was 1000 to 10000 nM, the Dmax [2] was greater than 90% and the DC50 ([2]; BTK degradation) was 10 to 50 nM. The IC50 ([3]; MINO) was less than 1000 nM.
NC(=O)c1c(-c2ccc(Oc3ccccc3)cc2)nn2c1NCC[C@H]2C1CCN(C2CCN(CCC3CCN(c4ccc5c(c4)CN(C4CCC(=O)NC4=O)C5=O)CC3)CC2)CC1 (stereo partly drawn) [Compound 326, (7S)-7-(1′-(2-(1-(2-(2,6-dioxopiperidin-3-yl)-1-oxoisoindolin-5-yl)piperidin-4-yl)ethyl)-[1,4′-bipiperidin]-4-yl)-2-(4-phenoxyphenyl)-4,5,6,7-tetrahydropyrazolo[1,5-a]pyrimidine-3-carboxamide] showed an IC50 [1] of 1000 to 10000 nM, a Dmax [2] greater than 90% and a DC50 ([2]; BTK degradation) of 10 to 50 nM. For the same molecule, the IC50 ([3]; MINO) was 1000 to 10000 nM.
For NC(=O)c1c(-c2ccc(Oc3ccccc3)cc2)nn2c1NCCC2C1CCN(C(=O)N2CCN(CCN3CCN(c4ccc5c(c4)C(=O)N(C4CCC(=O)NC4=O)C5=O)CC3)CC2)CC1 (stereo not drawn) [Compound 281, 7-(1-(4-(2-(4-(2-(2,6-dioxopiperidin-3-yl)-1,3-dioxoisoindolin-5-yl)piperazin-1-yl)ethyl)piperazine-1-carbonyl)piperidin-4-yl)-2-(4-phenoxyphenyl)-4,5,6,7-tetrahydropyrazolo[1,5-a]pyrimidine-3-carboxamide], the IC50 [1] was 1000 to 10000 nM, the Dmax [2] was greater than 90% and the DC50 ([2]; BTK degradation) was 10 to 50 nM. For the same molecule, the IC50 ([3]; MINO) was 1000 to 10000 nM.
NC(=O)c1c(-c2ccc(Oc3ccccc3)cc2)nn2c1NCC[C@H]2C1CCN(C2CCN(CCN3CCC(c4ccc5c(c4)CN(C4CCC(=O)NC4=O)C5=O)CC3)CC2)CC1 (stereo partly drawn) [Compound 328, (7S)-7-(1′-(2-(4-(2-(2,6-dioxopiperidin-3-yl)-1-oxoisoindolin-5-yl)piperidin-1-yl)ethyl)-[1,4′-bipiperidin]-4-yl)-2-(4-phenoxyphenyl)-4,5,6,7-tetrahydropyrazolo[1,5-a]pyrimidine-3-carboxamide] showed an IC50 [1] of 1000 to 10000 nM, a Dmax [2] greater than 75% and a DC50 ([2]; BTK degradation) of 10 to 50 nM. For the same molecule, the IC50 ([3]; MINO) was 1000 to 10000 nM.
Work on Nc1ncnc2c1c(-c1ccc(Oc3ccccc3)cc1)nn2C1CCN(C2CCN(CC3CCN(c4ccc(N5CCC(=O)NC5=O)cc4)CC3)C2)CC1 (stereo not drawn) [Compound 573, 1-(4-(4-((3-(4-(4-amino-3-(4-phenoxyphenyl)-1H-pyrazolo[3,4-d]pyrimidin-1-yl)piperidin-1-yl)pyrrolidin-1-yl)methyl)piperidin-1-yl)phenyl)dihydropyrimidine-2,4(1H,3H)-dione] yielded an IC50 [1] of less than 1000 nM, a DC50 [2, 4] of less than 10 nM and a Dmax [2, 5] greater than 75%. The IC50 ([3]; MINO) was 1000 to 10000 nM.
In the case of Nc1ncnc2c1c(-c1ccc(Oc3ccccc3)cc1)nn2C1CCN(CCN2CCC(Sc3ccc4c(c3)CN(C3CCC(=O)NC3=O)C4=O)CC2)CC1 (stereo not drawn) [Compound 472, 3-(5-((1-(2-(4-(4-amino-3-(4-phenoxyphenyl)-1H-pyrazolo[3,4-d]pyrimidin-1-yl)piperidin-1-yl)ethyl)piperidin-4-yl)thio)-1-oxoisoindolin-2-yl)piperidine-2,6-dione], the IC50 [1] is reported as 1000 to 10000 nM, the DC50 [2, 4] is reported as 10 to 50 nM and the Dmax [2, 5] is reported as greater than 75%. The IC50 ([3]; MINO) was 1000 to 10000 nM.
For NC(=O)c1c(-c2ccc(Oc3ccccc3)cc2)nn2c1NCC[C@H]2C1CCN(C2CCN(CC3CCN(c4ccc5c(c4)C(=O)N(C4CCC(=O)NC4=O)C5=O)CC3)CC2)CC1 (stereo partly drawn) [Compound 321, (7S)-7-(1′-((1-(2-(2,6-dioxopiperidin-3-yl)-1,3-dioxoisoindolin-5-yl)piperidin-4-yl)methyl)-[1,4′-bipiperidin]-4-yl)-2-(4-phenoxyphenyl)-4,5,6,7-tetrahydropyrazolo[1,5-a]pyrimidine-3-carboxamide], the IC50 [1] was greater than 10000 nM, the Dmax [2] was greater than 75% and the DC50 ([2]; BTK degradation) was 10 to 50 nM. The IC50 ([3]; MINO) was greater than 10000 nM.
Work on NC(=O)c1c(-c2ccc(Oc3ccccc3)cc2)nn2c1NCC[C@H]2C1CCN(CC2CCN(C(=O)N3CCN(C4CCN(c5ccc6c(c5)C(=O)N(C5CCC(=O)NC5=O)C6=O)CC4)CC3)CC2)CC1 (stereo partly drawn) [Compound 401] yielded an IC50 [1] of 1000 to 10000 nM, a DC50 [2, 4] of 10 to 50 nM and a Dmax [2, 5] greater than 90%. The IC50 ([3]; MINO) was 1000 to 10000 nM.
Nc1ncnc2c1c(-c1ccc(Oc3ccccc3)cc1)nn2C1CCN(CC2CC(N3CCN(c4ccc5c(c4)CN(C4CCC(=O)NC4=O)C5=O)CC3)C2)CC1 (stereo not drawn) [Compound 531, 3-(5-(4-(3-((4-(4-amino-3-(4-phenoxyphenyl)-1H-pyrazolo[3,4-d]pyrimidin-1-yl)piperidin-1-yl)methyl)cyclobutyl)piperazin-1-yl)-1-oxoisoindolin-2-yl)piperidine-2,6-dione] showed an IC50 [1] of less than 1000 nM, a DC50 [2, 4] of less than 10 nM and a Dmax [2, 5] greater than 90%. For the same molecule, the IC50 ([3]; MINO) was less than 1000 nM.
Molecule Nc1ncnc2c1c(-c1ccc(Oc3ccccc3)cc1)nn2C1CCN(CCCN2CCC(CN3CCC(c4ccc(N5CCC(=O)NC5=O)cc4)CC3)C2)CC1 (stereo not drawn) [Compound 550, 1-(4-(1-((1-(3-(4-(4-amino-3-(4-phenoxyphenyl)-1H-pyrazolo[3,4-d]pyrimidin-1-yl)piperidin-1-yl)propyl)pyrrolidin-3-yl)methyl)piperidin-4-yl)phenyl)dihydropyrimidine-2,4(1H,3H)-dione] has an IC50 [1] of less than 1000 nM, a DC50 [2, 4] of 10 to 50 nM and a Dmax [2, 5] greater than 90%. For the same molecule, the IC50 ([3]; MINO) was less than 1000 nM.
